This note sets out measurements from US20250145632A1, “Pyrimidine Heterocyclic Compound, Preparation Method Thereof and use Thereof in Medicine” (INSILICO MEDICINE IP LIMITED, priority 2021, published 2025).

Data set [1] in a line: In-vivo pharmacokinetic experiment in male beagles. Details: species or system dog. The note with it: beagle. The procedure:
Experimental method and conditions: male beagles with weight of 8-11 kg were purchased from Jiangsu Marshall Biotechnology Co., Ltd. The to-be-tested compound was administered to 3 dogs at 0.2 mg/kg or 1.0 mg/kg (solvent: 2% DMSO+10% Kolliphor HS 15+88% (6.818% of hydroxypropyl-beta-cyclodextrin aqueous solution), 0.2 mg/mL or 1.0 mg/mL) by intravenous injection, and administered to 3 dogs at 2 mg/kg (solvent: 5% DMSO+95% (10% hydroxypropyl-beta-cyclodextrin salt aqueous solution, 0.4 mg/mL) by oral intragastric administration. Head vein blood sampling was carried out 5 min, 15 min, 30 min, 1 h, 2 h, 4 h, 8 h and 24 h after the administration, and 500 μL of each sample was collected. After collection, the samples were placed on ice, and plasma was centrifugally separated within 15 min for testing. The concentration of the medicine in the plasma was detected by liquid chromatography-tandem mass spectrometry (LC/MS/MS), and pharmacokinetic parameters were calculated with Phoenix WinNonlin software when the concentration was measured.

For data set [2], the system named is HCC70 human breast ductal cancer cells. The data set can be described thus: HCC70 tumor cell proliferation inhibition (CellTiter-Glo). To be noted: 3 d culture. Format: cell-based. The procedure: HCC70 was purchased from ATCC; article No.: CRL-2315; RPMI1640 was purchased from Gibco; article No.: 11875-093; Pancreatin (including EDTA) was purchased from Gibco; article No.: 25200-072; FBS was purchased from Gibco; article No.: 10099-141C; CellTiter-Glo was purchased from Promega; article No.: G7573; DMSO was purchased from VWR AMRESCO; article No.: 0231-500ML; Staurosporine was purchased from Selleck; article No.: S1421; a cell counter was purchased from CHEMOMETEC; model: NC-200; and a microplate reader was purchased from PerkinElmer; Model: Envison.
(§1) HCC70 was human breast ductal cancer cells cultured in an RPMI-1640 culture medium containing 10% FBS. Cells in logarithmic phase were taken, and the cells were subjected to digesting, collecting and counting with pancreatin-EDTA, 2000 HCC70 cells/well were inoculated in a 384-well cell plate, and were cultured in 5% CO2 overnight. A 1000× compound stock solution with 3.16 times of gradient concentration was prepared with DMSO, and was diluted 100 times to 10× compound stock solution with a culture medium, and 10× compound stock solution was added into each cell culture well on the next day after cell inoculation, wherein the final concentration was 1×, and the DMSO content was 0.1%. The cell group was treated with DMSO as an experimental control (control), and the cell group was treated with 5 μM of Staurosporine as a blank control (blank).

Data set [3] concerns OVCAR-3 human ovarian adenocarcinoma cells. The data set can be described thus: OVCAR-3 tumor cell proliferation inhibition (CellTiter-Glo). To be noted: 3 d culture. Format: cell-based. The procedure: OVCAR-3 was purchased from ATCC; article No.: HTB-161; RPMI1640 was purchased from Gibco; article No.: 11875-093; Pancreatin (including EDTA) was purchased from Gibco; article No.: 25200-072; FBS was purchased from Gibco; Article No.: 10091-148; CellTiter-Glo was purchased from Promega; article No.: G7573; Bovine insulin was purchased from absin; article No.: abs9169; DMSO was purchased from VWR AMRESCO; article No.: 0231-500ML; Staurosporine was purchased from Selleck; article No.: S1421; a cell counter was purchased from CHEMOMETEC; model: NC-200; and a microplate reader was purchased from PerkinElmer; Model: Envison.
as §1, with “OVCAR-3” for “HCC70”, “ovarian adenocarcinoma” for “breast ductal cancer”, “20% FBS and 0.01 mg/mL of Bovine insulin.” for “10% FBS.”
Background: Cellular ATP, detected with luciferase, serves as a proxy for viable cell number.

Setting [4] is: male, dog, plasma, intravenous injection 1.0 mg/kg.
Where [5] appears, read: male, dog, plasma, oral administration 2 mg/kg.

pIC50: −log10 of the molar value. Where only a bound is given, the exact number is not on record here.

For the compound `CC1(C)CC[C@H](Nc2ncc(C(F)(F)F)c(-c3c[nH]c4c(P(C)(C)=O)c(C#N)ccc34)n2)CN1` [Compound 101, reference compound], the “CL” value in data set [1] (intravenous injection 1.0 mg/kg) is listed as 14.5 mL/min/kg. Moreover, in data set [1] (oral administration 2 mg/kg), the Cmax (in general, the highest concentration seen after dosing) is on record as 123 ng/mL and the “F(%)” value is listed as 65.8%. In data set [1] (setting [4]), the total exposure AUC(0-inf) – broadly, the area under the concentration-time curve extrapolated to infinity – came to 1230 ng·h/mL and the half-life (in general, the time needed for the level to fall by half in the phase considered) is 6.88 h. Besides, in data set [1] (male, dog, plasma, intravenous injection 1.0 mg/kg, read-out: Vss), the Vd is 7.57 L/kg. In data set [1] (setting [5]), the AUC(0-inf) is 1590 ng·h/mL and the half-life was 6.61 h.
Take `CN1CCOCCN[C@H]2CC[C@@H](C2)Nc2ncc(C(F)(F)F)c(n2)-c2c[nH]c3c(P(C)(C)=O)c(ccc23)C1=O` [Compound Z64, (4^1S,4^3S)-1^7-(dimethylphosphoryl)-11-methyl-2^5-(trifluoromethyl)-1^1H-8-oxa-3,5,11-triaza-1(3,6)-indola-2(4,2)-pyrimidina-4(1,3)-cyclopentanacyclododecaphan-12-one]: the negative-log IC50 (pIC50) (as a rule, the IC50 on a negative log10 scale, so that one unit is a factor of ten) was 7.37 in data set [2] and 7.01 in data set [3].
On the same counts, the results for `CN1CC(F)(F)CCNC2CC[C@@H](C2)Nc2ncc(C(F)(F)F)c(n2)-c2c[nH]c3c(P(C)(C)=O)c(ccc23)C1=O` [Compound Z66, (41 S,4^3S)-1^7-(dimethylphosphoryl)-8,8-difluoro-10-methyl-2^5-(trifluoromethyl)-1^1H-3,5,10-triaza-1(3,6)-indola-2(4,2)-pyrimidina-4(1,3)-cyclopentanacycloundecaphan-11-one] are 7.98 and 7.67.
As for `COc1cc2c(cn1)-c1ccc3c(c[nH]c3c1)-c1nc(ncc1C(F)(F)F)N[C@H]1CC[C@@H](C1)NCCCC2` [Compound Z73], the negative-log IC50 (pIC50) in data set [2] (Homo sapiens, HCC70, 72 h) was 6.63; in data set [3] (Homo sapiens, OVCAR-3, 72 h), 5.98.
In the case of `O=c1cc2c(c[nH]1)-c1ccc3c(c[nH]c3c1)-c1nc(ncc1C(F)(F)F)N[C@H]1CC[C@@H](C1)NCCCC2` [Compound Z74], the pIC50 was 5.90 in data set [2] (Homo sapiens, HCC70, 72 h) and 5.46 in data set [3] (Homo sapiens, OVCAR-3, 72 h).
As for `CN1CC(F)CCNC2CCC(C2)Nc2ncc(C(F)(F)F)c(n2)-c2c[nH]c3c(P(C)(C)=O)c(ccc23)C1=O` [Compound Z77, (4^1S,4^3S,8S)-17-(dimethylphosphoryl)-8-fluoro-10-methyl-2^5-(trifluoromethyl)-1′H-3,5,10-triaza-1(3,6)-indola-2(4,2)-pyrimidina-4(1,3)-cyclopentanacycloundecaphan-11-one], the pIC50 in data set [2] is 8.01; in data set [3] it was 7.93.
On the same counts, the results for `CN1C[C@H](F)CCN(C)[C@H]2CC[C@@H](C2)Nc2ncc(C(F)(F)F)c(n2)-c2c[nH]c3c(P(C)(C)=O)c(ccc23)C1=O` [Compound Z78, (4^1S,4^3S,8R)-1^7-(dimethylphosphoryl)-8-fluoro-5,10-dimethyl-2^5-(trifluoromethyl)-1^1H-3,5,10-triaza-1(3,6)-indola-2(4,2)-pyrimidina-4(1,3)-cyclopentanacycloundecaphan-11-one] are 7.36 and 7.20.
On the same counts, the results for `CN1CCCCN(C)[C@H]2CC[C@@H](C2)Nc2ncc(C(F)(F)F)c(n2)-c2c[nH]c3c(C#N)c(ccc23)C1=O` [Compound Z84, (4^1S,4^3S)-5,10-dimethyl-11-oxo-2^5-(trifluoromethyl)-1^1H-3,5,10-triaza-1(3,6)-indola-2(4,2)-pyrimidina-4(1,3)-cyclopentanacycloundecaphane-1^7-carbonitrile] are 6.58 and 6.70.
Take `CN1CCC(F)(F)CN(C)C2CC[C@@H](C2)Nc2ncc(C(F)(F)F)c(n2)-c2c[nH]c3c(P(C)(C)=O)c(ccc23)C1=O` [Compound Z85, (4^1S,4^3S)-1^7-(dimethylphosphoryl)-7,7-difluoro-5,10-dimethyl-2^5-(trifluoromethyl)-1^1H-3,5,10-triaza-1(3,6)-indola-2(4,2)-pyrimidina-4(1,3)-cyclopentanacycloundecaphan-11-one]: the values for the pIC50 in data set [2] and in data set [3] were 6.29 and 5.74, respectively.
For the compound `CN1CCC(F)(F)CN(C)C2CC[C@@H](C2)Nc2ncc(C(F)(F)F)c(n2)-c2c[nH]c3c(P(C)(C)=O)c(ccc23)C1=O` [Compound Z86, (4^1S,4^3S)-1^7-(dimethylphosphoryl)-7,7-difluoro-5,10-dimethyl-2^5-(trifluoromethyl)-1^1H-3,5,10-triaza-1(3,6)-indola-2(4,2)-pyrimidina-4(1,3)-cyclopentanacycloundecaphan-11-one], the negative logarithm of the IC50 (pIC50) in data set [2] and in data set [3] was below 5.00 throughout.
In the case of `CN1CCC(F)CN(C)C2CC[C@@H](C2)Nc2ncc(C(F)(F)F)c(n2)-c2c[nH]c3c(P(C)(C)=O)c(ccc23)C1=O` (stereo partly drawn) [Compound Z89, (41S)-1^7-(dimethylphosphoryl)-7-fluoro-5,10-dimethyl-2^5-(trifluoromethyl)-1^1H-3,5,10-triaza-1(3,6)-indola-2(4,2)-pyrimidina-4(1,3)-cyclopentanacycloundecaphan-11-one], the negative-log IC50 (pIC50) in data set [2] and in data set [3] was below 5.00 in each case.
As for `CN1CCC(F)CN(C)C2CC[C@@H](C2)Nc2ncc(C(F)(F)F)c(n2)-c2c[nH]c3c(P(C)(C)=O)c(ccc23)C1=O` (stereo partly drawn) [Compound Z90, (4^1S)-1^7-(dimethylphosphoryl)-7-fluoro-5,10-dimethyl-2^5-(trifluoromethyl)-1^1H-3,5,10-triaza-1(3,6)-indola-2(4,2)-pyrimidina-4(1,3)-cyclopentanacycloundecaphan-11-one], the pIC50 in data set [2] and in data set [3] was below 5.00 each time.
`CN1CCOCCN(C)[C@H]2CC[C@@H](C2)Nc2ncc(C(F)(F)F)c(n2)-c2ccc3c(c[nH]c3n2)C1=O` [Compound Z91, (4^1S,4^3S)-5,11-dimethyl-2^5-(trifluoromethyl)-1^1H-8-oxa-3,5,11-triaza-1(3,6)-pyrrolo[2,3-b]pyridina-2(4,2)-pyrimidina-4(1,3)-cyclopentanacyclododecaphan-12-one]: the values for the negative-log IC50 (pIC50) in data set [2] and in data set [3] were 6.36 and 6.09, respectively.
On the same counts, the results for `CN1CCCCN(C)[C@H]2CC[C@@H](C2)Nc2ncc(C(F)(F)F)c(n2)-c2c[nH]c3nc(ccc23)C1=O` [Compound Z92, (4^1S,4^3S)-5,10-dimethyl-2^5-(trifluoromethyl)-1^1H-3,5,10-triaza-1(3,6)-pyrrolo[2,3-b]pyridina-2(4,2)-pyrimidina-4(1,3)-cyclopentanacycloundecaphan-11-one] are 6.97 and 6.46.
On the same counts, the results for `CN1CC(F)(F)CCN(C)C2CCC(C2)Nc2ncc(C(F)(F)F)c(n2)-c2ccc3c(c[nH]c3n2)C1=O` (stereo not drawn) [Compound Z93, (4^1S,4^3S)-8,8-difluoro-5,10-dimethyl-2^5-(trifluoromethyl)-1^1H-3,5,10-triaza-1(3,6)-pyrrolo[2,3-b]pyridine-2(4,2)-pyrimidina-4(1,3)-cyclopentanacycloundecaphan-11-one] are 5.28 and below 5.00.
